Data from US7811760B2, “Vector and method for detecting the change in transcription amount” (priority 2006, dated 2010).

Target: T1, aryl hydrocarbon receptor (Rattus norvegicus, UniProt P41738, Q794H)
T1 construct: The SD-line rat AhR gene-coding region was amplified from the reverse-transcribed sample by means of PCR; V5-His (C-terminal tag of vector pcDNA4/V5-His B); expressed in transfected cells; host or cells: mouse neuroblastoma Neuro2a, transient transfection with LIPOFECTAMINE 2000
T1 sequence (P41738 10-853 Q794H): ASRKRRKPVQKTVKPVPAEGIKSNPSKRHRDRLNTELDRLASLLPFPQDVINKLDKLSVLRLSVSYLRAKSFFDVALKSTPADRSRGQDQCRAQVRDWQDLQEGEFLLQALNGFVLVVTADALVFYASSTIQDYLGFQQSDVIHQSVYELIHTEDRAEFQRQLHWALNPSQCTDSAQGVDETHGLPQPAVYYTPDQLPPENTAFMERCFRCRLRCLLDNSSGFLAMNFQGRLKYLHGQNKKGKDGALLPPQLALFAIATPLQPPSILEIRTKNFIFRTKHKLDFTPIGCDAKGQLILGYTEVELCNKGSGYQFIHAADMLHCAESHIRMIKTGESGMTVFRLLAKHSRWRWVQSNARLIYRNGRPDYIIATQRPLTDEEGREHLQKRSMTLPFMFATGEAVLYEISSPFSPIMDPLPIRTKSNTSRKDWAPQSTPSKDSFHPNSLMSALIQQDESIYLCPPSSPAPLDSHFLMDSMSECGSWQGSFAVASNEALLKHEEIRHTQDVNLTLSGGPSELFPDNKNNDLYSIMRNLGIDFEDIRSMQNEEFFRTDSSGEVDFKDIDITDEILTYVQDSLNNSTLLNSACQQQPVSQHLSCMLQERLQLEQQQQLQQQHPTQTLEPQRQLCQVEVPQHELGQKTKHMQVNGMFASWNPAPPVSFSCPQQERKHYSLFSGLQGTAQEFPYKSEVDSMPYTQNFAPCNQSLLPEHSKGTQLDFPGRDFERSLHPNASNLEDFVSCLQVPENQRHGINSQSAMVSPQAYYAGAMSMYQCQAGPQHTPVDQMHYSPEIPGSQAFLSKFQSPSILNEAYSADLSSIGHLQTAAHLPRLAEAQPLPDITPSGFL
Assay: Reporter gene assay in Neuro2a with pTHE60/Luc and pTHE60×3/Luc (SEQ ID No: 4)
Format: cell-based, SD-line rat
Details: 1 nM and 10 nM TCDD; pTHE60/Luc versus pTHE60×3/Luc
Description: In Example 9, the region of SEQ ID No: 4 was used as the TCDD-responsive region in the TH transcriptional regulatory region. The region of SEQ ID No: 4 was amplified by PCR using the region of SEQ ID No: 3 as a template and using the following primers: Forward primer: 5′-[…]-3′ (SEQ ID No: 29); and Reverse primer: 5′-[…]-3′ (SEQ ID No: 30). Pyrobest DNA polymerase was used in the PCR. Recognition sequences for restriction enzymes KpnI (for forward primer) and NheI (for reverse primer) were added to the terminal of the respective primers, for the purpose of facilitating incorporation of the PCR amplified fragment into the vector. The terminal of the region of SEQ ID No: 4 amplified by PCR was phosphorylated with 5′-polynucleotide kinase (Takara Bio Inc.), and then, the regions of SEQ ID No: 4 were ligated in tandem with each other by using a ligation kit. The ligated DNA fragments were digested with restriction enzymes KpnI and NheI, and subjected to agarose gel electrophoresis. DNA fragment consisting of a single copy of the region of SEQ ID No: 4 and DNA fragment consisting of three copies of the regions of SEQ ID No: 4 linked in tandem were excised from the gel based on their molecular weight, and purified with a QIAQUICK Gel Extraction Kit. […]

Clc1cc2c(cc1Cl)Oc1cc(Cl)c(Cl)cc1O2 [TCDD, 2,3,7,8-tetrachlorodibenzo-p-dioxine]
activity of the test substance on transcriptional regulation, by number of regions of SEQ ID No: 4: increased according to the increase in the number of the regions incorporated into the vector
